Here are results for six molecules from ChEMBL document CHEMBL1141115, “Synthesis of leukotriene B4 antagonists labeled with In-111 or Tc-99m to image infectious and inflammatory foci” (J Med Chem, 2005).

In assay [1] the target is T1, Leukotriene B4 receptor 1 (Homo sapiens, UniProt Q15722). Put plainly: Inhibitory concentration against human leukotriene B4 receptor using competing agent [3H]-LTB4 as radioligand in pH 7.2 buffer, for 1 h at 37 degree C; (n=2).
The target of assay [2] is T1, Leukotriene B4 receptor 1. In words: Inhibitory concentration against human leukotriene B4 receptor using competing agent [111In]-(17)] as radioligand in pH 7.2 buffer, for 1 hr at 37 degree C; (n=2).
In assay [3] the target is T1, Leukotriene B4 receptor 1. In words: Inhibitory concentration against human leukotriene B4 receptor using competing agent [3H]-LTB4 as radioligand in pH 7.2 buffer upon incubation for 1 hr at 37 degree C; (n=4).
Assay [4] deals with T1, Leukotriene B4 receptor 1. Put plainly: Inhibitory concentration against human leukotriene B4 receptor using competing agent [3H]-LTB4 as radioligand in pH 7.2 buffer, for 1 hr at 37 degree C.

Broadly, the IC50 is the point on the concentration scale where inhibition reaches its midpoint.

SMILES strings stand for the structures.

T1 sequence (Q15722 whole entry): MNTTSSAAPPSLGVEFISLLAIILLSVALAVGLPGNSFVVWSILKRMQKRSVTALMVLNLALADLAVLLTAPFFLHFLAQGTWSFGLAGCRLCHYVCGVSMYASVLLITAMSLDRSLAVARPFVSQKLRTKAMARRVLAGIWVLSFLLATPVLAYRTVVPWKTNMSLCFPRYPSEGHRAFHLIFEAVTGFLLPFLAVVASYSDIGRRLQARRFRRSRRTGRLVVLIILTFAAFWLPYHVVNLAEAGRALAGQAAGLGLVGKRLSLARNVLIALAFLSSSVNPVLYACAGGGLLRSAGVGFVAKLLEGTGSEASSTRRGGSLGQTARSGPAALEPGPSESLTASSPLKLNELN

On to `CC(C)(CCCCOc1cc(-c2ccccc2)cc(-c2ccccc2)n1)c1nnnn1CCCCC(=O)NCCCOCCOCCOCCCNC(=O)[C@H](CS(=O)(=O)O)NC(=O)[C@H](CS(=O)(=O)O)NC(=O)[C@H](CS(=O)(=O)O)NC(=O)[C@H](CS(=O)(=O)O)NC(=O)CC[C@H](N)C(=O)N[C@@H](CS(=O)(=O)O)C(=O)N[C@@H](CS(=O)(=O)O)C(=O)N[C@@H](CS(=O)(=O)O)C(=O)N[C@@H](CS(=O)(=O)O)C(=O)NCCCOCCOCCOCCCNC(=O)CCCCn1nnnc1C(C)(C)CCCCOc1cc(-c2ccccc2)cc(-c2ccccc2)n1`, for which the 50% inhibitory concentration (IC50) in assay [1] was determined as 8 nM.

Regarding `CC(C)(CCCCOc1cc(-c2ccccc2)cc(-c2ccccc2)n1)c1nnnn1CCCCC(=O)NCCCOCCOCCOCCCNC(=O)[C@H](CS(=O)(=O)O)NC(=O)[C@H](CS(=O)(=O)O)NC(=O)[C@H](CS(=O)(=O)O)NC(=O)[C@H](CS(=O)(=O)O)NC(=O)CC[C@H](NC(=O)CN(CCN(CCN(CC(=O)O)CC(=O)O)CC(=O)O)CC(=O)O)C(=O)N[C@@H](CS(=O)(=O)O)C(=O)N[C@@H](CS(=O)(=O)O)C(=O)N[C@@H](CS(=O)(=O)O)C(=O)N[C@@H](CS(=O)(=O)O)C(=O)NCCCOCCOCCOCCCNC(=O)CCCCn1nnnc1C(C)(C)CCCCOc1cc(-c2ccccc2)cc(-c2ccccc2)n1`, the concentration for half-maximal inhibition (IC50) in assay [2] was 30 nM; in assay [1], 54 nM.

The molecule `CC(C)(CCCCOc1cc(-c2ccccc2)cc(-c2ccccc2)n1)c1nnnn1CCCCC(=O)NCCCOCCOCCOCCCNC(=O)[C@H](CS(=O)(=O)O)NC(=O)[C@H](CS(=O)(=O)O)NC(=O)[C@H](CS(=O)(=O)O)NC(=O)[C@H](CS(=O)(=O)O)NC(=O)c1ccc(N/N=C/c2ccccc2)nc1` showed a concentration for half-maximal inhibition (IC50) in assay [2] of 16 nM.

In the case of `CC(C)(CCCCOc1cc(-c2ccccc2)cc(-c2ccccc2)n1)c1nnnn1CCCCC(=O)NCCCOCCOCCOCCCNC(=O)c1ccc(N/N=C/c2ccccc2S(=O)(=O)O)nc1`, the values for the half-maximal inhibitory concentration (IC50) in assay [2] and in assay [3] were 44 nM and 45 nM, respectively.

As to `CC(C)(CCCCOc1cc(-c2ccccc2)cc(-c2ccccc2)n1)c1nnnn1CCCCC(=O)NCCCOCCOCCOCCCNC(=O)[C@H](CS(=O)(=O)O)NC(=O)[C@H](CS(=O)(=O)O)NC(=O)[C@H](CS(=O)(=O)O)NC(=O)[C@H](CS(=O)(=O)O)NC(=O)CC[C@H](NC(=O)c1ccc(N/N=C/c2ccccc2)nc1)C(=O)N[C@@H](CS(=O)(=O)O)C(=O)N[C@@H](CS(=O)(=O)O)C(=O)N[C@@H](CS(=O)(=O)O)C(=O)N[C@@H](CS(=O)(=O)O)C(=O)NCCCOCCOCCOCCCNC(=O)CCCCn1nnnc1C(C)(C)CCCCOc1cc(-c2ccccc2)cc(-c2ccccc2)n1`, in assay [2], the half-maximal inhibitory concentration (IC50) amounted to 230 nM.

`CC(C)(CCCCOc1cc(-c2ccccc2)cc(-c2ccccc2)n1)c1nnn[nH]1` yielded an IC50 in assay [4] of 20 nM.
